Results reported in publication PMC8038958 (The AAPS Journal, 2021).

Assay: Population pharmacokinetic analysis (NONMEM, two-compartment model) of vancomycin serum concentrations from routine TDM
[1] = structural base model without covariates, estimate (RSE %)

## CN[C@H](CC(C)C)C(=O)N[C@H]1C(=O)N[C@@H](CC(N)=O)C(=O)N[C@H]2C(=O)N[C@H]3C(=O)N[C@H](C(=O)N[C@H](C(=O)O)c4cc(O)cc(O)c4-c4cc3ccc4O)[C@H](O)c3ccc(c(Cl)c3)Oc3cc2cc(c3O[C@@H]2O[C@H](CO)[C@@H](O)[C@H](O)[C@H]2O[C@H]2C[C@](C)(N)[C@H](O)[C@H](C)O2)Oc2ccc(cc2Cl)[C@H]1O [Vancomycin]
Alternative model with power function instead of linear TBW, not retained
  estimated exponent of TBW on V1 and V2: 1.05
Structural base model without covariates, 1892 children 1-18 years, normal weight, overweight, obese, intermittent i.v. infusion, estimate (RSE %)
  CL: 2.17 (2) L/h
[1]
  Q (inter-compartmental clearance between V1 and V2): 2.24 (4) L/h
  V1 (volume of distribution of central compartment): 5.27 (8) L
  V2 (volume of distribution of the peripheral compartment): 11.9 (8) L
